Entries after “also recorded” stand apart in the source; their conditions may differ. Read-outs that look alike come from different tables or passages of the source.
Key:
[1] = Multiple-ascending dose trial of Compound 2 in healthy participants; format: in vivo, human; conditions: for Cmax / AUC / half-life: human, plasma, oral; for AUC: read-out: AUCtau (mean); for half-life: read-out: t1/2 (median) (converted)
Description: A multiple-ascending dose clinical trial of Compound 2 was performed.
Compound 2 plasma and urine concentrations were determined using validated liquid chromatography-tandem mass spectrometry assay.
Plasma samples for Compound 2 concentration and PK sampling were collected pre-dose and at 0.5, 1, 2, 3, 4, 6, 8, 12, and 24 hours after the first dose, at pre-dose on Days 3, 4, 5, 8, 11, and 13 of dosing, and at pre-dose and at 0.5, 1, 2, 3, 4, 6, 8, 12, 24, 48, and 72 hours after 14 days of administration of study medication (placebo or compound). (See Table 16, FIG. 17) PK parameters were estimated via noncompartmental methods using Phoenix® WinNonlin® (Certara, LP, Princeton, N.J.). Concentrations of serum pharmacodynamic (PD) biomarkers apolipoprotein B (Apo B) and sex hormone binding globulin (SHBG) were measured using an immunoassay and serum lipids were determined using spectrophotometry.
PD sampling was also performed. Percent change from baseline for PD markers were calculated using an ANCOVA model with percent change from baseline as dependent variable, treatment group as fixed effect, and baseline as covariate. Analyses used observed data only without imputation for missing data.

[2] = Multiple-ascending dose trial of Compound 1 in healthy participants: safety and PK; format: in vivo, human; conditions: for Cmax / Tmax / AUC(0-t) / half-life: human, plasma; for Cmax / AUC(0-t): mean (CV %); for Tmax / half-life: median (min, max)
Description: A multiple-ascending dose clinical trial of Compound 1 was performed.

[3] = 10 mg, 10 mg QD, Last day (of 14)

N#Cc1nn(-c2cc(Cl)c(Oc3n[nH]c(=O)c4ccccc34)c(Cl)c2)c(=O)[nH]c1=O [Compound 2, 2-(3,5-dichloro-4-((4-oxo-3,4-dihydrophthalazin-1-yl)oxy)phenyl)-3,5-dioxo-2,3,4,5-tetrahydro-1,2,4-triazine-6-carbonitrile]
AEs by relationship to drug: Not related ([1]; 3 mg QD 14 days (N = 6)): 1 (16.7%) n (%)
AEs by relationship to drug: Possibly related ([1]; 3 mg QD 14 days (N = 6)): 0 n (%)
AEs by relationship to drug: Related ([1]; 3 mg QD 14 days (N = 6)): 0 n (%)
AEs by relationship to drug: Unlikely related ([1]; 3 mg QD 14 days (N = 6)): 0 n (%)
Subject incidence: Any AE, all CTCAE grades ([1]; 3 mg QD 14 days (N = 6)): 1 (16.7%) n (%)
Subject incidence: Grade 1 AEs ([1]; 3 mg QD 14 days (N = 6)): 1 (16.7%) n (%)
Subject incidence: Grade 2 or higher AEs ([1]; 3 mg QD 14 days (N = 6)): 0 n (%)
Subject incidence: Serious AEs ([1]; 3 mg QD 14 days (N = 6)): 0 n (%)
AEs by relationship to drug: Not related ([1]; 6 mg QD 14 days (N = 6)): 0 n (%)
AEs by relationship to drug: Possibly related ([1]; 6 mg QD 14 days (N = 6)): 1 (16.7%) n (%)
AEs by relationship to drug: Related ([1]; 6 mg QD 14 days (N = 6)): 0 n (%)
AEs by relationship to drug: Unlikely related ([1]; 6 mg QD 14 days (N = 6)): 0 n (%)
Subject incidence: Any AE, all CTCAE grades ([1]; 6 mg QD 14 days (N = 6)): 1 (16.7%) n (%)
Subject incidence: Grade 1 AEs ([1]; 6 mg QD 14 days (N = 6)): 1 (16.7%) n (%)
Subject incidence: Grade 2 or higher AEs ([1]; 6 mg QD 14 days (N = 6)): 0 n (%)
Subject incidence: Serious AEs ([1]; 6 mg QD 14 days (N = 6)): 0 n (%)
AEs by relationship to drug: Not related ([1]; 10 mg QD 14 days (N = 6)): 2 (33.3%) n (%)
AEs by relationship to drug: Possibly related ([1]; 10 mg QD 14 days (N = 6)): 0 n (%)
AEs by relationship to drug: Related ([1]; 10 mg QD 14 days (N = 6)): 0 n (%)
AEs by relationship to drug: Unlikely related ([1]; 10 mg QD 14 days (N = 6)): 0 n (%)
Subject incidence: Any AE, all CTCAE grades ([1]; 10 mg QD 14 days (N = 6)): 2 (33.3%) n (%)
Subject incidence: Grade 1 AEs ([1]; 10 mg QD 14 days (N = 6)): 2 (33.3%) n (%)
Subject incidence: Grade 2 or higher AEs ([1]; 10 mg QD 14 days (N = 6)): 0 n (%)
Subject incidence: Serious AEs ([1]; 10 mg QD 14 days (N = 6)): 0 n (%)
Ctau (mean) ([1]; Day 14, 1 mg QD): 25.7 ng/mL
Ctau (mean) ([1]; Day 14, 3 mg QD): 77.9 ng/mL
Ctau (mean) ([1]; Day 14, 6 mg QD): 175 ng/mL
Ctau (mean) ([1]; Day 14, 10 mg QD): 196 ng/mL
GGT ([1]; QD 14 days): Dose-dependent GGT increases
TSH or free T3 ([1]; QD 14 days): without clear change
free T4 ([1]; QD 14 days): declined in dose-dependent fashion
free testosterone levels ([1]; QD 14 days): no significant change
heart rate and blood pressure ([1]; QD 14 days): remained stable
mean ALT values ([1]; QD 14 days): not significantly different from placebo
oral bioavailability and PK variability ([1]; QD 14 days): good oral bioavailability with low PK variability
total testosterone ([1]; QD 14 days): Dose-dependent total testosterone increases
safety and tolerability ([1]; QD 14 days, up to 10 mg): well-tolerated
HDL-c ([1]; day 15): did not significantly change
total cholesterol, LDL-c, Apo B, and triglycerides ([1]; day 15, 10 mg dose cohort): significant reductions
Cmax ([1]; Day 14, 1 mg QD): 0.0803 µg/mL
AUC ([1]; Day 14, 1 mg QD): 1.09 µg·h/mL
half-life ([1]; Day 14, 1 mg QD): 19.5 h
Cmax ([1]; Day 14, 3 mg QD): 0.291 µg/mL
AUC ([1]; Day 14, 3 mg QD): 3.6 µg·h/mL
half-life ([1]; Day 14, 3 mg QD): 16 h
Cmax ([1]; Day 14, 6 mg QD): 0.699 µg/mL
AUC ([1]; Day 14, 6 mg QD): 8.31 µg·h/mL
half-life ([1]; Day 14, 6 mg QD): 15.8 h
Cmax ([1]; Day 14, 10 mg QD): 0.996 µg/mL
AUC ([1]; Day 14, 10 mg QD): 10.6 µg·h/mL
half-life ([1]; Day 14, 10 mg QD): 15.4 h
SHBG ([1]; multiple doses, even at 3 mg QD): significant and dose-dependent increases

COC1CCN(c2ncc(OC/C(=C/F)CN)cn2)CC1 [Compound 1, (E)-3-fluoro-2-(((2-(4-methoxypiperidin-1-yl)pyrimidin-5-yl)oxy)methyl)prop-2-en-1-amine]
Subject incidence of TEAEs considered possibly treatment-related ([2]; 1 mg QD 7 days (n = 6)): 1 (16.7) n (%)
Subject incidence of any TEAE ([2]; 1 mg QD 7 days (n = 6)): 2 (33.3) n (%)
TEAE frequency: Back pain ([2]; 1 mg QD 7 days (n = 6)): 0
TEAE frequency: Catheter site inflammation ([2]; 1 mg QD 7 days (n = 6)): 0
TEAE frequency: Contusion ([2]; 1 mg QD 7 days (n = 6)): 0
TEAE frequency: Dermatitis contact ([2]; 1 mg QD 7 days (n = 6)): 1 (16.7)
TEAE frequency: Diarrhea ([2]; 1 mg QD 7 days (n = 6)): 0
TEAE frequency: Dizziness ([2]; 1 mg QD 7 days (n = 6)): 1 (16.7)
TEAE frequency: Medical device site reaction ([2]; 1 mg QD 7 days (n = 6)): 0
TEAE frequency: Rhinitis ([2]; 1 mg QD 7 days (n = 6)): 0
TEAE frequency: headache ([2]; 1 mg QD 7 days (n = 6)): 1 (12.5)
Subject incidence of TEAEs considered possibly treatment-related ([2]; 4 mg QD 7 days (n = 6)): 0 n (%)
Subject incidence of any TEAE ([2]; 4 mg QD 7 days (n = 6)): 2 (33.3) n (%)
TEAE frequency: Back pain ([2]; 4 mg QD 7 days (n = 6)): 0
TEAE frequency: Catheter site inflammation ([2]; 4 mg QD 7 days (n = 6)): 0
TEAE frequency: Contusion ([2]; 4 mg QD 7 days (n = 6)): 0
TEAE frequency: Dermatitis contact ([2]; 4 mg QD 7 days (n = 6)): 2 (33.3)
TEAE frequency: Diarrhea ([2]; 4 mg QD 7 days (n = 6)): 0
TEAE frequency: Dizziness ([2]; 4 mg QD 7 days (n = 6)): 0
TEAE frequency: Medical device site reaction ([2]; 4 mg QD 7 days (n = 6)): 0
TEAE frequency: Rhinitis ([2]; 4 mg QD 7 days (n = 6)): 0
TEAE frequency: headache ([2]; 4 mg QD 7 days (n = 6)): 0
time to steady state ([2]; 10 mg QD): 7 days
Subject incidence of TEAEs considered possibly treatment-related ([2]; 10 mg QD 14 days (n = 6)): 0 n (%)
Subject incidence of any TEAE ([2]; 10 mg QD 14 days (n = 6)): 6 (100) n (%)
TEAE frequency: Back pain ([2]; 10 mg QD 14 days (n = 6)): 0
TEAE frequency: Catheter site inflammation ([2]; 10 mg QD 14 days (n = 6)): 0
TEAE frequency: Contusion ([2]; 10 mg QD 14 days (n = 6)): 0
TEAE frequency: Dermatitis contact ([2]; 10 mg QD 14 days (n = 6)): 0
TEAE frequency: Diarrhea ([2]; 10 mg QD 14 days (n = 6)): 0
TEAE frequency: Dizziness ([2]; 10 mg QD 14 days (n = 6)): 0
TEAE frequency: Medical device site reaction ([2]; 10 mg QD 14 days (n = 6)): 6 (100)
TEAE frequency: Rhinitis ([2]; 10 mg QD 14 days (n = 6)): 1 (16.7)
TEAE frequency: headache ([2]; 10 mg QD 14 days (n = 6)): 0
half-life versus dose ([2]; 1, 4, 10 mg QD): increased with dose
plasma PK exposure, dose proportionality ([2]; between dose groups on Day 1): greater than dose proportional
Cmax ([2]; 1 mg, 1 mg QD, Day 1): 0.000568 µg/mL
Tmax ([2]; 1 mg, 1 mg QD, Day 1): 1.53 h
AUC(0-t) ([2]; 1 mg, 1 mg QD, Last day (of 7)): 0.0133 µg·h/mL
Cmax ([2]; 1 mg, 1 mg QD, Last day (of 7)): 0.00275 µg/mL
Tmax ([2]; 1 mg, 1 mg QD, Last day (of 7)): 2.51 h
AUC(0-t) ([2]; 4 mg, 4 mg QD, Day 1): 0.0171 µg·h/mL
Cmax ([2]; 4 mg, 4 mg QD, Day 1): 0.00511 µg/mL
Tmax ([2]; 4 mg, 4 mg QD, Day 1): 2.02 h
AUC(0-t) ([2]; 4 mg, 4 mg QD, Last day (of 7)): 0.198 µg·h/mL
Cmax ([2]; 4 mg, 4 mg QD, Last day (of 7)): 0.0186 µg/mL
Tmax ([2]; 4 mg, 4 mg QD, Last day (of 7)): 3.03 h
AUC(0-t) ([2]; 10 mg, 10 mg QD, Day 1): 0.102 µg·h/mL
Cmax ([2]; 10 mg, 10 mg QD, Day 1): 0.0177 µg/mL
Tmax ([2]; 10 mg, 10 mg QD, Day 1): 1.9 h
AUC(0-t) [2, 3]: 0.656 µg·h/mL
Cmax [2, 3]: 0.0475 µg/mL
Tmax [2, 3]: 3.98 h
half-life ([2]; 1 mg QD, Last day (of 7)): 2.27 h
half-life ([2]; 4 mg QD, Last day (of 7)): 6.71 h
half-life ([2]; 10 mg QD, Last day (of 14)): 13.3 h
Subject incidence of TEAEs considered possibly treatment-related ([2]; overall Compound 1 (n = 18)): 1 (5.6) n (%)
Subject incidence of any TEAE ([2]; overall Compound 1 (n = 18)): 10 (55.6) n (%)
TEAE frequency: Back pain ([2]; overall Compound 1 (n = 18)): 0
TEAE frequency: Catheter site inflammation ([2]; overall Compound 1 (n = 18)): 0
TEAE frequency: Contusion ([2]; overall Compound 1 (n = 18)): 0
TEAE frequency: Dermatitis contact ([2]; overall Compound 1 (n = 18)): 3 (16.7)
TEAE frequency: Diarrhea ([2]; overall Compound 1 (n = 18)): 0
TEAE frequency: Dizziness ([2]; overall Compound 1 (n = 18)): 1 (5.6)
TEAE frequency: Medical device site reaction ([2]; overall Compound 1 (n = 18)): 6 (33.3)
TEAE frequency: Rhinitis ([2]; overall Compound 1 (n = 18)): 1 (5.6)
TEAE frequency: headache ([2]; overall Compound 1 (n = 18)): 1 (5.6)
safety and tolerability ([2]; up to 10 mg QD for 14 days): mild (grade 1); also recorded: safe and well tolerated

Reference: patent US20230241071A1, “COMBINATION TREATMENT OF LIVER DISORDERS” (Terns Pharmaceuticals, Inc., priority 2021, published 2023)
